Results: patent publication US12642790B2, “Drug combination for treating obesity” (The Curators of the University of Missouri, priority 2022, dated 2026)

Tests used:
ERβ = assay: Western blot of ERβ protein in inguinal subcutaneous adipose tissue of diet-induced obese WT and ERβDBDKO mice; assay type: in vivo; settings: daily injections of CL for two weeks; ERβDBDKO vs WT diet-induced obese mice; GxT p<0.001; FIG. 1B
Text: (§1) Inguinal subcutaneous adipose tissue was harvested from diet-induced obese male and female wild-type (WT) and estrogen receptor beta (ERβ) DNA-binding domain (DBD) knock-out (ERβDBDKO) mice that were given daily injections of CL316,243 (CL), a beta3 adrenergic receptor (B3AR) ligand, for two weeks. ERβDBDKO mice express a mutated form of ERβ that lacks genomic activity by genetic ablation of the DBD, however still retain non-classical (i.e., non-genomic) signaling through ERβ. Protein was then isolated from the adipose tissue using Thermo Scientific™ RIPA lysis and extraction buffer, quantified using BCA method, then 10 ug was separated on a 4-20% SDS-PAGE gel followed by transfer to polyvinylidene difluoride membranes using BioRad Trans-Turbo Blot system. […] Images were captured on a ChemiDoc Imaging System (BioRad, Hercules, CA), band intensity was quantified using ImageLab software (BioRad), then ERβ and UCP1 protein expression was quantified relative to beta actin.
(§2) FIG. 1A is a Western blot showing the levels of ERβ and UPC1 in WT and ERβDBDKO (“KO”) mice, in the presence and absence of CL316243 (“CL”). The blot in FIG. 1A was scanned to quantify the band intensity, and the data used to graph the relative protein fold change for ERβ (FIG. 1B) and UCP-1 (FIG. 1C).

UCP1 [1] = assay: Western blot of UCP1 protein in inguinal subcutaneous adipose tissue of diet-induced obese WT and ERβDBDKO mice; assay type: in vivo; settings: daily injections of CL for two weeks; ERβDBDKO vs WT diet-induced obese mice; GxT p=0.017; FIG. 1C
Text: as §1, §2

UCP1 [2] = assay: ucp1 mRNA induction in primary adipocytes by qRT-PCR; assay type: cell-based; settings: primary adipocytes from male C57BL6J mice; 1 uM CL with 1 uM PHTPP or 10 nM DPN; 24 hours; compared to CL alone; FIG. 4
Experimental: To test the hypothesis in vitro, that inhibition of genomic activity of ERβ would enhance the effectiveness of the […], CL316,243 (CL) to induce expression of the mitochondrial UCP1, primary adipocytes were treated with the following: (a) CL, (b) diarylpropionitrile (DPN) (i.e., ligand known to promote classical genomic functions of ERβ), (c) 4-(2-phenyl-5,7-bis(trifluoromethyl)pyrazolo[1,5-a]pyrimidin-3-yl)phenol (PHTPP) (i.e., ligand known to suppress classical genomic functions of ERβ), (d) CL+DPN, and (e) CL+PHTPP. Briefly, perigonadal and subcutaneous WAT was harvested from male C57BL6J mice, digested in collagenase to isolate stromal vascular cells then cultured in Dulbecco's modified eagle medium/nutrient mixture F12 media supplemented with 10% fetal bovine serum, 1% GlutaMax, 0.1% gentamicin and 0.05% insulin at 37° C. and 5% CO2. Adipocyte differentiation was induced by supplementing media with 0.5 mM 3-isobutyl-1-methylxanithin, 1 uM dexamethasone, and […] for 48 hours. 14 days post induction, primary adipocytes were treated with either 1 uM CL, 10 nM DPN, 1 uM PHTPP or a combination of ligands as outlined above. After 24 hours treatment, ucp1 mRNA induction was measured using qRT-PCR. […] Ucp1 mRNA expression is expressed as 2^ΔCT where ΔCT=housekeeping CT−Ucp1 CT and presented as fold difference relative to control (CTRL). […]

[3] = administration of mirabegron; cited from earlier work
white adipose tissue = settings: obese human individuals; cited from earlier work

For `C[C@H](Cc1ccc2c(c1)OC(C(=O)[O-])(C(=O)[O-])O2)NC[C@H](O)c1cccc(Cl)c1.[Na+].[Na+]` [CL], the “ERβ protein content in WAT (relative to beta actin)” value (ERβ) was “increases ERβ protein content in WAT to a greater level in ERβDBDKO mice compared to WT” and the “UCP1 protein content (relative to beta actin)” value (UCP1 [1]) was “increases UCP1 protein content in ERβDBDKO mice more so than in WT mice”.

For `Oc1ccc(-c2c(-c3ccccc3)nn3c(C(F)(F)F)cc(C(F)(F)F)nc23)cc1` [PHTPP, 4-(2-phenyl-5,7-bis(trifluoromethyl)pyrazolo[1,5-a]pyrimidin-3-yl)phenol], the “Ucp1 mRNA expression, fold difference relative to control” value (UCP1 [2]) was “increases the CL-mediated induction of UCP1”.

For `Nc1nc(CC(=O)Nc2ccc(CCNC[C@H](O)c3ccccc3)cc2)cs1` [mirabegron], the side effects [3] is listed as “may result in hypertension, nasopharyngitis, tachycardia, headaches, urinary tract infections, upper respiratory tract infections, constipation, abdominal pain, and fatigue” and the “white adipose tissue dysfunction” value (white adipose tissue) is listed as “reduced white adipose tissue dysfunction”.
